{
  "source": "patent US20200253506A1",
  "about": "“TREATMENT OF A DISEASE OF THE GASTROINTESTINAL TRACT WITH AN INTEGRIN INHIBITOR” (Progenity, Inc., priority 2016, published 2020)",
  "assay": "Tacrolimus tissue, plasma and GI content pharmacokinetics, oral vs intra-cecal ingestible device delivery",
  "assay_type": "in vivo",
  "conditions": "swine; intra-cecal compared to oral; 12 hours post-dose; FIG. 76",
  "procedure": "No further randomization procedure was employed.\nAnimals in Group 1 received an ingestible device containing 0.8 mL of vehicle solution (80% alcohol, 20% HCO-60). Animals in Group 2 received orally […] liquid formulation of tacrolimus at 4 mg/0.8 mL per animal (Prograf: 5 mg/mL). Animals in Group 3 received intra-cecally an ingestible device containing tacrolimus at 1 mg in 0.8 mL per ingestible device. Animals in Group 4 received intra-cecally an ingestible device containing tacrolimus at 2 mg in 0.8 mL per ingestible device. Animals in Group 5 received intra-cecally an ingestible device containing tacrolimus at 4 mg in 0.8 mL per ingestible device. […]\nApproximately 200-400 mg of rectal content were collected, if available, with a fecal swab (Copan Diagnostics Nylon Flocked Dry Swabs, 502CS01). The fecal swab was pre-weighed and weighed after collection in the collection tube (Sterile Tube and Cap No Media, PFPM913S), and the sample weight was recorded. […]\nFor tissue necropsy, small intestine fluid and cecal fluid were collected separately from all the animals into two separate square plastic bottles, and stored at −20° C. The length and diameter of the cecum and the colon was measured from one animal in each group and recorded for reference. […] All samples were weighed, and the tissue sample weights were recorded. […]",
  "data": [
    {"smiles": "C=CC[C@@H]1/C=C(\\C)C[C@H](C)C[C@H](OC)[C@H]2O[C@@](O)(C(=O)C(=O)N3CCCC[C@H]3C(=O)O[C@H](/C(C)=C/[C@@H]3CC[C@@H](O)[C@H](OC)C3)[C@H](C)[C@@H](O)CC1=O)[C@H](C)C[C@@H]2OC", "note": "[tacrolimus]", "values": [
      {"measurement": "mean concentration of tacrolimus in the cecum tissue and the proximate colon tissue", "result": "higher"}
    ]}
  ]
}
